Source: patent US20230174582A1, “VIPR2 ANTAGONIST PEPTIDE” (ICHIMARU PHARCOS CO., LTD, priority 2020, published 2023)
“Also recorded” adds a separate entry of the source. Starred links: 1 amine or outer side, 2 acyl side, 3 side chain; linkers in the order of their positions; H or OH if unused. Positions of bridges follow the written chain, without caps; N, C: chain ends. Non-standard residues stand in square brackets, D forms with d. Residues, ends and D or L forms follow the SMILES beside them. TBMB = c1c(C[*:1])cc(C[*:3])cc1C[*:2]; mXylylene = c1cc(C[*:1])cc(C[*:2])c1; NMeY = CN[C@@H](Cc1ccc(O)cc1)C(=O)O; Dap = NC[C@H](N)C(=O)O; Mpa = O=C(O)CCS; Sar = CNCC(=O)O

Key:
[1] = Resistance to protease degradation in rat plasma (RP-HPLC peak); format: in vitro ADME; settings: 37° C., 24 hours compared to 0 hours, FIG. 6
Experimental: To confirm that the peptides of the embodiments are resistant to protease degradation compared to VIpep-3, VIpep-3 or representative peptides of the embodiments (Seq-1, Seq-6, Seq-9, or Seq-10) were mixed in rat plasma, and after a certain incubation time, the residual amount of the peptide was evaluated by the presence or absence of peaks on RP-HPLC. To 1 μL of each 10 mM peptide, 20 μL of rat plasma was added, and incubated at 37° C. for an arbitrary time (0 or 24 hours). Then, for VIpep-3, 80% acetonitrile, for the other peptides, 200 μL each of acetonitrile was added, mixed well, placed on ice for 10 minutes, and centrifuged at 15,000 rpm at 4° C. for 10 minutes to remove plasma proteins.

VIPR2 [2] = target: T1, VIPR2 (Homo sapiens, UniProt P41587); test: Change in intracellular calcium concentration in VIPR2-expressing cells (Fluo-8), peptide co-added with VIP; format: cell-based; set-up: host or cells: purchased human VIPR2-expressing cell line; settings: VIP 150 nM, peptide 750 nM co-added, FIG. 5
T1 sequence (P41587 24-438): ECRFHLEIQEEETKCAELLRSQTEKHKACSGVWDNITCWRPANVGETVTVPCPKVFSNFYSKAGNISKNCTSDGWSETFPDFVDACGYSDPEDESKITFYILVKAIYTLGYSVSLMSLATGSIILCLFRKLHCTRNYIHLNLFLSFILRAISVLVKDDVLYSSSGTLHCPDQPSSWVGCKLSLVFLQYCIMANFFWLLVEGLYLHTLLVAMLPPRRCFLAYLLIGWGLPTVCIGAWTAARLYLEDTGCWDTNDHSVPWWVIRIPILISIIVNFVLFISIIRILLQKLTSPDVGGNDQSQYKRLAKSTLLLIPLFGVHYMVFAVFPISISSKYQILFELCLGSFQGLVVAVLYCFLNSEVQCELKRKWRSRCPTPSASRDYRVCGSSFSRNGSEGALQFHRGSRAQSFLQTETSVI
Experimental: One of the downstream signals of VIPR2 is known to be changes in intracellular calcium concentration. Human VIPR2-expressing cell line (Catalog No. HTS079RTA, manufactured by Eurofins) was treated with Scree Quest™ Fluo-8 No Wash Calcium Assay Kit (Catalog No. 36315, AAT Bioquest) to introduce Fluo-8, an indicator reagent to measure changes in intracellular calcium concentration by fluorescence. The natural ligand VIP (150 nM final concentration) and VIpep-3 (final concentration 750 nM) or representative examples of the peptides of the embodiments (Seq-1, Seq 5-9) (final concentration 750 nM) were co-added and changes in fluorescence intensity were observed over time using fluorescence microscopy. The difference between the fluorescence intensity before the addition of VIP and the strongest fluorescence intensity after the addition of VIP was taken as 100% and compared to the difference in fluorescence intensity when VIpep-3 or the inventive peptide was co-added.

VIPR2 [3] = target: T2, VIPR2 (Mus musculus, UniProt P41588); test: VIPR2 antagonist activity in vivo: CREB phosphorylation in prefrontal cortex (Western blotting); settings: ICR mice 12 days old, male, s.c., Ro25-1553 0.4 nmol/g with peptide 1 or 10 nmol/g, 1 hour, FIG. 8
T2 construct: from tissue; host or cells: prefrontal cortex of ICR mice, 12 days old, male
T2 sequence (P41588 23-437): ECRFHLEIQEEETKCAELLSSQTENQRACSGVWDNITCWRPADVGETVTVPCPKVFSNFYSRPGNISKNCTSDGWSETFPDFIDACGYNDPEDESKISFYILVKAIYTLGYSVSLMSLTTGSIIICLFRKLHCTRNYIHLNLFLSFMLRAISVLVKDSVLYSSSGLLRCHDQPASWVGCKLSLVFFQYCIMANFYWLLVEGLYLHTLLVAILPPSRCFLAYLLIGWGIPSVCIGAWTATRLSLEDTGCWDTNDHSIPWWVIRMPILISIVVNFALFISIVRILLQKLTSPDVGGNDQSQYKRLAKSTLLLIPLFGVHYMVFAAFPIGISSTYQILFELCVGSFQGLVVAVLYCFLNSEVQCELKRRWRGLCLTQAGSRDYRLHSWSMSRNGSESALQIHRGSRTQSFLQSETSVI
Experimental: Ro25-1553 (Peptide Institute, Inc.) which is an analog of VIP and a selective agonist for VIPR2, was dissolved in PBS (0.4 nmol/g body weight), and then mixed at 9:1 with the representative example of the inventive peptide (Seq-10) dissolved in DMSO (1 nmol/g body weight or 10 nmol/g body weight) or DMSO (vehicle group) (at a final concentration of DMSO is 10%). These solutions were administered subcutaneously to ICR mice (12 days old, male). 1 hour later, brains were removed, prefrontal cortex was dissected, and the phosphorylation of intracellular cyclic AMP response sequence-binding protein (CREB) (one of the downstream signals of VIPR2) in the cells was evaluated by Western blotting. The antibodies used for Western blotting were anti-phosphorylated CREB antibody (#9198) and anti-CREB antibody (#9197) purchased from Cell Signaling Technology.

VIPR2 [4] = target: T1, VIPR2; test: Selective antagonist activity: intracellular calcium change (FLIPR Tetra) in VIPR1-, VIPR2- or PAC1-expressing cells; format: cell-based; set-up: host or cells: VIPR2-expressing cells
Experimental: A representative example of any concentration of the inventive peptide (Seq-10) was added to cells expressing VIPR1-expressing cells, VIPR2-expressing cells, or PAC1-expressing cells all of which have been transfected with intracellular calcium concentration indicator and incubated for 30 minutes. Then, VIPR1 cells and VIPR 2 cells were treated with VIP (25 nM and 150 nM, respectively), and PAC1 cells were treated with PACAP (35 nM). The change in intracellular calcium concentration for 2 minutes immediately after the addition thereof was measured by FLIPR Tetra. The inhibition rate of the antagonist peptides was calculated, assuming that the change in intracellular calcium concentration when only the ligand for VIP or PACAP was added was defined as 0% inhibition, and the change in intracellular calcium concentration when both the antagonist peptide and the ligand were not added was defined as 100%.

ICR mice = test: Novel object recognition test; format: in vivo; settings: Ro25-1553 0.07 nmol/g mixed with peptide 1 nmol/g, FIG. 9B
Experimental: We evaluated whether the peptide could improve the recognition function to novel objects, which is reduced by the activation of VIPR2. Ro25-1553 (Peptide Institute, Inc.) an analog of VIP and a selective agonist for VIPR2, was dissolved in PBS (0.07 nmol/g body weight), and then mixed at 99:1 with a representative example of the inventive peptide (Seq-10) dissolved in DMSO (1 nmol/g body weight) or DMSO (Vehicle group) (1% final concentration of DMSO). These solutions were administered subcutaneously once daily to male ICR mice on postnatal day 1 for 14 days, the mice were continuously bred and subjected to a novel object recognition test at 8 weeks of age. The novel object recognition test was conducted during the light period (8:00-20:00) according to Non-Patent Literature 12. First, test cages (30 cm×30 cm×35 cm) made of acrylic-modified polyvinyl chloride were placed in a soundproofed laboratory at an illumination level of 30 lux and covered only with wooden sterilized soft chips (Sankyo Lab Service Co.). […] The animals' behavior during the training and test trials was video-recorded, and the search time for each of the two objects was measured. The discrimination index was calculated as the ratio (%) of the search time difference between object c and object a to the total search time in the test trial.

VIPR2 [5] = target: T1, VIPR2; set-up: host or cells: VIPR2-expressing cells; settings: cellular studies, Non-Patent Literature 8; cited from earlier work
[6] = target: T3, extracellular domain of human VIPR2 (Homo sapiens, UniProt P41587); settings: recombinant protein, Non-Patent Literature 8; cited from earlier work
T3 sequence (P41587 24-124 limits assumed): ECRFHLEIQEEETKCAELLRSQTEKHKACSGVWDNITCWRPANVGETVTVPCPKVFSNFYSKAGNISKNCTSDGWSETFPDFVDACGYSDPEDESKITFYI

Compound	resistance to protease degradation: peptide-derived RP-HPLC peak after incubation in rat plasma [1]	inhibition of the receptor-activating activity of VIP on VIPR2 (antagonist activity, intracellular calcium) (VIPR2 [2])	phosphorylation of CREB in prefrontal cortex (VIPR2 [3])	antagonist activity against VIP-VIPR2 interaction versus VIP-VIPR1 or PACAP-PAC1 interactions (selectivity) (VIPR2 [4]; peptide preincubated 30 minutes, VIP 25 nM (VIPR1), VIP 150 nM (VIPR2), PACAP 35 nM (PAC1), FIG. 7)	antagonist activity against VIPR2-expressing cells (VIPR2 [4]; summary statement, Seq-10 tested with VIP 150 nM, FLIPR Tetra)	recognition of novel objects versus Ro25-1553 alone (discrimination index) (ICR mice; s.c. once daily 14 days from postnatal day 1, test at 8 weeks, p less than 0.001 (Student's t-test))	recognition function compared with normal mice (ICR mice; s.c. once daily 14 days, test at 8 weeks)	inhibition of VIP and PACAP signaling pathway through VIPR2 (VIPR2 [5])	binding to VIPR2 extracellular region/domain [6]
CC[C@H](C)[C@H](NC(=O)[C@H](CC(C)C)NC(=O)[C@@H]1CC(=O)NCCCC[C@@H]2NC(=O)[C@@H]3CCCN3C(=O)[C@H](CC(C)C)NC(=O)[C@H](Cc3ccc(O)cc3)N(C)C(=O)CCSCc3cccc(c3)CSC[C@H](NC(=O)[C@H](CC(C)C)NC(=O)[C@H](Cc3ccc(O)cc3)NC2=O)C(=O)N1)C(N)=O [Seq-6, c(Mpa-NmeTyr-Leu-Pro-c[Lys-Tyr-Leu-Cys)-Asp]-Leu-Ile-NH2] ([Mpa][NMeY]LPKYLCDLI-NH2; linker 1-8 via mXylylene; lactam 5-9)	resistance to protease degradation; also recorded: remained almost the same	antagonist activity							
CC[C@H](C)[C@H](NC(=O)[C@H](CC(C)C)NC(=O)[C@@H]1CC(=O)NCCCC[C@@H]2NC(=O)[C@@H]3CCCN3C(=O)[C@H](CC(C)C)NC(=O)[C@H](Cc3ccc(O)cc3)NC(=O)[C@@H]3CCCN3C(=O)[C@@H]3CCCN3C(=O)[C@@H](NC(C)=O)CSSC[C@H](NC(=O)[C@H](CC(C)C)NC(=O)[C@H](Cc3ccc(O)cc3)NC2=O)C(=O)N1)C(N)=O [Seq-10, Ac-c(Cys-Pro-Pro-Tyr-Leu-Pro-c[Lys-Tyr-Leu-Cys)-Asp]-Leu-Ile-NH2] (Ac-CPPYLPKYLCDLI-NH2; disulfide 1-10; lactam 7-11)	resistance to protease degradation; also recorded: remained almost the same		clearly inhibited	significantly strong against VIP-VIPR2 interaction than those against VIP-VIPR1 or PACAP-PAC1 interactions	antagonist activity	significant improvement	almost the same as that of normal mice		
CC(=O)N[C@H]1CSSC[C@@H](C(=O)N[C@H](C(=O)N[C@@H](CC(C)C)C(=O)N[C@@H](CC(C)C)C(=O)N[C@@H](CC(C)C)C(=O)N[C@@H](CCCNC(=N)N)C(=O)N[C@@H](CO)C(=O)O)[C@@H](C)O)NC(=O)[C@H](CC(C)C)NC(=O)[C@H](CCCNC(=N)N)NC(=O)[C@H](CCCNC(=N)N)NC(=O)[C@@H]2CCCN2C(=O)[C@H](CC(C)C)NC(=O)[C@H](Cc2ccc(O)cc2)NC(=O)[C@@H]2CCCN2C(=O)[C@@H]2CCCN2C1=O [VIpep-3, Ac-c(Cys-Pro-Pro-Tyr-Leu-Pro-Arg-Arg-Leu-Cys)-Thr-Leu-Leu-Leu-Arg-Ser-OH] (Ac-CPPYLPRRLCTLLLRS-OH; disulfide 1-10)	greatly reduced	inhibit the receptor-activating activity of VIP on VIPR2						inhibits	tightly binds
c(Mpa-NmeTyr-Leu-NmeGly-c(Cys)-Tyr-Leu-Cys)-Dap-Leu-Ile-NH2 ([Mpa][NMeY]L[Sar]CYLC[Dap]LI-NH2; linker (positions not given here) via TBMB; not fully specified (bridges)) [Seq-9, cyclization TBMB(1-5-8)]	resistance to protease degradation; also recorded: remained almost the same	antagonist activity							
c(Mpa-Pro-Pro-Tyr-Leu-Pro-c[Lys-Tyr-Leu-Cys)-Asp]-Leu-Ile-NH2 ([Mpa]PPYLPKYLCDLI-NH2; disulfide (positions not given here); lactam 7-11; not fully specified (bridges)) [Seq-1, cyclization S-S(1-10)/amide(7-11)]	resistance to protease degradation; also recorded: remained almost the same	antagonist activity; also recorded: inhibit the receptor-activating activity of VIP on VIPR2							
